Measurements taken from publication PMC11505918, “The Epiphyte Bacillus sp. G2112 Produces a Large Diversity of Nobilamide Peptides That Promote Biofilm Formation in Pseudomonads and Mycobacterium aurum” (Biomolecules, 2024).
Where a SMILES comes first, the peptide text is derived from it. Bridges are numbered along the chain shown (N, C = ends). [ ]: non-standard residue; d: D form. The star is where a group is joined. d(aThr) = C[C@@H](O)[C@@H](N)C(=O)O; Isobutyryl = CC(C)C(=O)*; Dhb = C/C=C(\N)C(=O)O; Propionyl = CCC(=O)*

Key:
M. aurum = test: Crystal violet biofilm formation assay, M. aurum; details: crystal violet staining, 0.2 µg/µL, KB medium, 28 °C, 2 d
P. syringae pv. glycinea = test: Crystal violet biofilm formation assay, P. syringae pv. glycinea; details: crystal violet staining, 0.2 µg/µL, KB medium, 28 °C, 2 d
Pseudomonas sp. G124 = test: Crystal violet biofilm formation assay, Pseudomonas sp. G124; details: crystal violet staining, 0.2 µg/µL, KB medium, 28 °C, 2 d
[1] = test system: lung, gastric, and colorectal cancers; details: cited from earlier work
[2] = test system: matrix metalloproteinase-2 and -9; details: lung, gastric, and colorectal cancers; cited from earlier work
[3] = test system: Lysinibacillus sphaericus DSM1867; details: for inhibition zone against L. sphaericus: DSM1867, 0.1 mg/mL; for antibiotic activity against L. sphaericus (in words): agar diffusion, 5 µg/hole (Figure S97b)

Row | Molecule | effect on biofilm formation in M. aurum (in words) (M. aurum) | effect on biofilm formation in P. syringae pv. glycinea (in words) (P. syringae pv. glycinea) | effect on biofilm formation in Pseudomonas sp. G124 (in words) (Pseudomonas sp. G124) | cancer cell motility (in words) [1] | expression of the matrix metalloproteinase-2 and -9 (in words) [2] | inhibition zone against L. sphaericus [3] [mm] | antibiotic activity against L. sphaericus (in words) [3]
1 | nobilamide W [nobilamide W (22)] | strongly induced | strongly induced | strongly induced | – | – | – | –
2 | nobilamide I [nobilamide I (8)] | less clear effect | worked best | less clear effect | suppressed | suppressed | – | –
3 | C/C=C1\NC(=O)[C@H](C)NC(=O)[C@H](C(C)C)NC(=O)[C@H](NC(=O)[C@H](Cc2ccccc2)NC(=O)[C@@H](CC(C)C)NC(=O)[C@@H](Cc2ccccc2)NC(=O)CC)[C@@H](C)OC1=O [A-3302-A (2), A-3302-A] (Propionyl-[dF][dL]F[d(aThr)]VA[Dhb]; ester 4-C) | – | – | – | – | – | 18.3 | powerful antibiotic activity
4 | C/C=C1\NC(=O)[C@H](C)NC(=O)[C@H](C(C)C)NC(=O)[C@H](NC(=O)[C@H](Cc2ccccc2)NC(=O)[C@@H](CC(C)C)NC(=O)[C@@H](Cc2ccccc2)NC(=O)C(C)C)[C@@H](C)OC1=O [nobilamide J (9), nobilamide J] (Isobutyryl-[dF][dL]F[d(aThr)]VA[Dhb]; ester 4-C) | – | – | – | – | – | 21.3 | powerful antibiotic activity
5 | nobilamide S [nobilamide S (18)] | – | did not promote biofilm formation | induced biofilm formation | – | – | – | –
6 | nobilamide A [nobilamide A (4)] | strongly induced | strongly induced | strongly induced | – | – | – | did not exhibit antimicrobial activity
